In patent publication US10563204B2, “Methods of treating cancer harboring hemizygous loss of TP53” (priority 2015, dated 2020):
≈ marks a conversion by molar mass, not a printed value. Numbered stars: 1 amine (or outer) side, 2 acyl side, 3 side chain; on linkers, the order of the positions; unused ones are H or OH. Bridge positions count the residues as written; N and C are the ends. Square brackets hold non-standard residues; d marks the D form. Peptide text beside a SMILES is read from it. I, II: the chains in the order shown. Actinocin(9to1) = Cc1c2oc3c(C)ccc(C(=O)[*:1])c3nc-2c(C(=O)[*:2])c(N)c1=O; NMeV = CN[C@H](C(=O)O)C(C)C; Sar = CNCC(=O)O

Experiments:
POLR2A^loss HCT116 cells = test: Cell proliferation and survival assay, isogenic HCT116 cells with hemizygous loss of POLR2A (CRISPR/Cas9); type: cell-based, human
Method: (§1) Equal numbers of cells were plated in 12-well plates in triplicate. Cells were fixed with 10% methanol and stained with 0.1% crystal violet (dissolved in 10% methanol) at indicated times. After staining, wells were washed three times with PBS and destained with acetic acid. The absorbance of the crystal violet solution was measured at 590 nm. For cell survival assay, cells were seeded at a concentration of 1,000 cells per well in 96-well plates and treated with indicated concentrations of α-Amanitin or actinomycin D 24 hours later. Cell viability was quantified using WST-1 reagent (Roche) according to the manufacturer's instructions. All experiments were performed in triplicate.
To exclude the effects of various genetic backgrounds across cell lines, the CRISPR (clustered regularly interspaced short palindromic repeat)/Cas9 system was employed to generate an isogenic HCT116 cell line with hemizygous loss of POLR2A (Wang et al., 2014; Wang et al., 2013). Two single-guide RNAs (sgRNAs) were designed to target the second exon of the POLR2A gene (FIG. 9A). Both of them efficiently targeted and disrupted the POLR2A gene, as shown in the Surveyor analysis (FIG. 9B). Single colonies of HCT116 cells bearing mono-allelic deletion of POLR2A were selected and verified by DNA sequencing (FIG. 9C). Small deletion in the targeted region led to open reading frame shift, producing only a short stretch of the N-terminal peptide without all functional domains of POLR2A. […] However, hemizygous deletion of POLR2A dramatically sensitized HCT116 cells to α-Amanitin treatment with an IC50 of ˜0.1 μg ml^−1, which is 8-fold lower than that of parental HCT116 cells (FIGS. 2G and 2H). […] POLR2A^loss and POLR2A^neutral HCT116 cells expressing Dox-inducible POLR2A shRNA were also generated. […] While a low-dose of Dox (100 ng ml^−1) was sufficient to remarkably kill the POLR2A^loss cells, high doses of Dox only had minimal effects on the POLR2A^neutral cells (FIGS. 2I, 2J, and 9H).

[1] = system: POLR2A^loss cells (SW837, SNU283); test: Cell proliferation and survival assay, POLR2A^loss colorectal cancer cells; type: cell-based, human
Method: as §1

[2] = system: POLR2A^neutral cells (HCT116, SW480); test: Cell proliferation and survival assay, POLR2A^neutral colorectal cancer cells; type: cell-based, human
Method: as §1

[3] = free α-Amanitin; cited from earlier work
OATP1B3 = OATP1B3 (Homo sapiens, UniProt Q9NPD5); settings: free α-Amanitin; transporter on hepatocyte membrane; cited from earlier work
OATP1B3, sequence (Q9NPD5 whole entry): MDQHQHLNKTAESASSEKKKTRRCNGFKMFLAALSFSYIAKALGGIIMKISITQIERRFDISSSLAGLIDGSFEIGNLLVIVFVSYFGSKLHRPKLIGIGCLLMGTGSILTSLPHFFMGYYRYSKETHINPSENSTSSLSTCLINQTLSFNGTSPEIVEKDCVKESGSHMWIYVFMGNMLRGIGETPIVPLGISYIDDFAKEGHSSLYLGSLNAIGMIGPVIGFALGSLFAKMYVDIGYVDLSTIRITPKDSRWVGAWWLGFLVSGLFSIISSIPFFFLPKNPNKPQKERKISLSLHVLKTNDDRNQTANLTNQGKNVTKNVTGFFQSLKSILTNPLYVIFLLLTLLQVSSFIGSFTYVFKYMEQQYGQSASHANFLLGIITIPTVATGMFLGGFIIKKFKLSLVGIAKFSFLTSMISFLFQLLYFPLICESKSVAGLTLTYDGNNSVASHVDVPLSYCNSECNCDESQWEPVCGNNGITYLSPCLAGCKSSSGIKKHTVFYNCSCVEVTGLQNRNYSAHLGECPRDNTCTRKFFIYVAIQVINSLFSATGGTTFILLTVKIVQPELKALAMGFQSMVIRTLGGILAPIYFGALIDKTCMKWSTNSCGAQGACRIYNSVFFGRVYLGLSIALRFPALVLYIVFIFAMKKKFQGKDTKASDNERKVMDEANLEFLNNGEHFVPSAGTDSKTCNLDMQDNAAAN

POLR2A^loss xhCRC cells = type: cell-based, human; settings: α-Amanitin combined with each of the three drugs
Method: as §1
(§2) Blockage of RNA polymerase may lead to p53 accumulation and activation (Derheimer et al., 2007). To examine the effects of p53 on cell response to POLR2A inhibition, the concomitant deletion of TP53 and POLR2A was recapitulated in HCT116 and xhCRC cell lines (FIGS. 3A and 10A-10C). […] The RNA polymerase II is in charge of mRNA synthesis, an essential function for any type of cells including therapy-resistant tumor cells. The drug sensitivity of POLR2A^neutral and POLR2A^loss cells to three major chemotherapy drugs for colorectal cancer (5-fluorouracil (5-FU), oxaliplatin, and SN-38) was examined. […]

[4] = system: POLR2A^neutral xhCRC cells; type: cell-based, human; settings: α-Amanitin combined with each of the three drugs
Method: as §1, §2

xhCRC and HCT116 cells = test: Sensitivity of isogenic xhCRC and HCT116 cells (TP53 / POLR2A hemizygous deletion) to α-Amanitin; type: cell-based, human
Method: as §1, §2

Row | SMILES | difference in sensitivity between POLR2A^loss and POLR2A^neutral HCT116 cells (POLR2A^loss HCT116 cells; actinomycin D) | sensitivity compared with POLR2A^neutral cells ([1]; actinomycin D treatment) | half-maximum inhibitory concentration (IC50) ([2]; POLR2A^neutral cells (HCT116, SW480)) | cell growth / cell death at high concentrations ([2]; ≥1 μg ml^−1, HCT116, SW480) | IC50 (POLR2A^loss HCT116 cells; HCT116 with hemizygous deletion of POLR2A) | IC50 lower than that of parental HCT116 cells (POLR2A^loss HCT116 cells; POLR2A^loss vs parental HCT116) | resistance to α-Amanitin after re-expression of exogenous POLR2A ([1]; SNU283 and SW837 re-expressing exogenous POLR2A, level comparable to HCT116 and SW480) | cell-killing effect compared with POLR2A^neutral cells ([1]; concentrations from 0 to 1.0 μg ml^−1) | IC50 of POLR2A^neutral cells relative to that of POLR2A^loss cells ([1]; neutral (HCT116, SW480) vs loss (SW837, SNU283)) | cell growth / cell death at high concentrations ([1]; ≥1 μg ml^−1, SW837, SNU283) | liver toxicity [3] | binding by OATP1B3 (OATP1B3) | effect on cell killing by 5-FU, oxaliplatin and SN-38 (POLR2A^loss xhCRC cells) | effect on cell killing by 5-FU, oxaliplatin and SN-38 [4] | change in sensitivity to α-Amanitin (xhCRC and HCT116 cells; cells with hemizygous deletion of TP53) | change in sensitivity to α-Amanitin (xhCRC and HCT116 cells; cells with hemizygous loss of POLR2A, regardless of TP53 status)
1 | Cc1c2oc3c(C)ccc(C(=O)N[C@@H]4C(=O)N[C@H](C(C)C)C(=O)N5CCC[C@H]5C(=O)N(C)CC(=O)N(C)[C@@H](C(C)C)C(=O)O[C@@H]4C)c3nc-2c(C(=O)N[C@@H]2C(=O)N[C@H](C(C)C)C(=O)N3CCC[C@H]3C(=O)N(C)CC(=O)N(C)[C@@H](C(C)C)C(=O)O[C@@H]2C)c(N)c1=O [actinomycin D] (I: T[dV]P[Sar][NMeV] / II: T[dV]P[Sar][NMeV]; ester I:1-I:C, II:1-II:C; linker I:N-II:N via Actinocin(9to1)) | no substantial difference | did not show any greater sensitivity |  |  |  |  |  |  |  |  |  |  |  |  |  | 
2 | CC[C@H](C)[C@@H]1NC(=O)CNC(=O)[C@@H]2Cc3c([nH]c4cc(O)ccc34)[S+]([O-])C[C@@H](NC(=O)CNC1=O)C(=O)N[C@@H](CC(N)=O)C(=O)N1C[C@H](O)C[C@H]1C(=O)N[C@@H]([C@@H](C)[C@@H](O)CO)C(=O)N2 (stereo in doubt) [α-Amanitin] |  |  | ~1.0 µg/mL | complete cell death | ~0.1 µg/mL (≈ 0.109 µM) | 8 fold | restored their resistance | significantly higher levels of cell-killing effect | 10 fold | complete cell death | toxic to liver | specifically bound | significantly enhanced cell-killing effects | no notable effects | no significant changes | markedly sensitized
